pEC50, pIC50: −log10 of the molar value. Active and inactive are the calls of the source. The rule behind the calls is not given here.
Assays:
[1] = target: T1, Peroxisome proliferator-activated receptor gamma (Homo sapiens) (UniProt P37231); assay: Transactivation of human PPARgamma expressed in african green monkey CV1 cells at 30 uM by luciferase reporter gene assay relative to […]; format: cell-based; details: CV-1
T1 sequence (whole entry): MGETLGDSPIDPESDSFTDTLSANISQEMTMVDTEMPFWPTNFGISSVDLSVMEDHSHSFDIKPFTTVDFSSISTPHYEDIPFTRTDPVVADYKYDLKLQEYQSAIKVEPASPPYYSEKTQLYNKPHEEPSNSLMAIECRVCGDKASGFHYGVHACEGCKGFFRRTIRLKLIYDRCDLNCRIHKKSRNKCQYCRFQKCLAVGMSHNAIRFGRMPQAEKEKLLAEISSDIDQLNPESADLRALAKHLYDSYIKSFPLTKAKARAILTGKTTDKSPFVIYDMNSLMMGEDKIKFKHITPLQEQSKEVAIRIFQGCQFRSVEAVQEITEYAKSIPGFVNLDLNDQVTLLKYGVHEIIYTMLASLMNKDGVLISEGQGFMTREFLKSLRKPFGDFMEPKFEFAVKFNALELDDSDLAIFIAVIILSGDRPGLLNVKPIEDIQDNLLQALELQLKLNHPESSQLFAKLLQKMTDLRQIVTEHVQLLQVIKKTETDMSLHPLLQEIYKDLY

[2] = target: T2, Peroxisome proliferator-activated receptor delta (Homo sapiens, UniProt Q03181); details: cv-1
T2 sequence (Q03181 whole entry): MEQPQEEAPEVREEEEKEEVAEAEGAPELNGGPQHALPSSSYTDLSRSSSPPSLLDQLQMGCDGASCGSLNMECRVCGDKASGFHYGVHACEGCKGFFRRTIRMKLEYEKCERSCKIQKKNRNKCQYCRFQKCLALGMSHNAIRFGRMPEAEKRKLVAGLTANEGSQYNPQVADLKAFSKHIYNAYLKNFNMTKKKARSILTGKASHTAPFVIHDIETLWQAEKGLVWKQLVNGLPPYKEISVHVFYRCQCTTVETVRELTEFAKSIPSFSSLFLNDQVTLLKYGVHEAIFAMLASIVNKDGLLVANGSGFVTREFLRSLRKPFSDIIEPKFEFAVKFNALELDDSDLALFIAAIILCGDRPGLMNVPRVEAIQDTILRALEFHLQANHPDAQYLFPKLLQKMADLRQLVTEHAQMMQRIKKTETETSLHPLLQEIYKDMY

[3] = target: T3, Peroxisome proliferator-activated receptor alpha (Homo sapiens, UniProt Q07869); assay: Binding affinity to GST-tagged human PPARalpha by TR-FRET analysis
T3 sequence (Q07869 whole entry): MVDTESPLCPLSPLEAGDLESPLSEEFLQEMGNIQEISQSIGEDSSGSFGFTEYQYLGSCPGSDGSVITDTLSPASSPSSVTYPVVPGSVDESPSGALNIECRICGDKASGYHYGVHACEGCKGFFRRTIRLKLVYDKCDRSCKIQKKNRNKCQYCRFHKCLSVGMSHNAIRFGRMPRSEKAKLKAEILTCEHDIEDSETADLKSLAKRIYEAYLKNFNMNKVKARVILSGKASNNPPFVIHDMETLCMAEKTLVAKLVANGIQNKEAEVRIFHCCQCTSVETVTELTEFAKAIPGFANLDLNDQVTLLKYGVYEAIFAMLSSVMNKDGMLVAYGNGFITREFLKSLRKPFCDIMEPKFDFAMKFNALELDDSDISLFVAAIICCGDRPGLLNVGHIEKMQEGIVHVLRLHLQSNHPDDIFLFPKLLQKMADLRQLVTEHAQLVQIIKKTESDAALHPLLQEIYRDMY

[4] = target: T4, Peroxisome proliferator-activated receptor delta (Homo sapiens) (UniProt Q03181); details: CV-1, 30 uM
T4 sequence (whole entry): T2 sequence (Q03181 whole entry)

[5] = target: T5, Peroxisome proliferator-activated receptor alpha (Homo sapiens) (UniProt Q07869); assay: Transactivation of human PPARalpha expressed in african green monkey CV1 cells at 30 uM by luciferase reporter gene assay relative to Wy14643; format: cell-based; details: CV-1
T5 sequence (whole entry): T3 sequence (Q07869 whole entry)

[6] = target: T3, Peroxisome proliferator-activated receptor alpha; assay: Transactivation of human PPARalpha expressed in african green monkey CV1 cells by luciferase reporter gene assay; format: cell-based, CV-1
[7] = target: T6, Peroxisome proliferator-activated receptor gamma (Homo sapiens, UniProt P37231); assay: Transactivation of human PPARgamma expressed in african green monkey CV1 cells by luciferase reporter gene assay; format: cell-based, CV-1
T6 sequence (P37231 whole entry): T1 sequence (whole entry)

[8] = target: T6, Peroxisome proliferator-activated receptor gamma
3T3-L1 [9] = assay: Induction of preadipocyte differentiation in mouse 3T3L1 cells assessed as […] in lipid droplet accumulation at 10 uM Oil Red O staining; format: functional, cell-based
HepG2 [10] = assay: Increase in CPT1 mRNA expression in human HepG2 cells at 10 uM; format: functional, cell-based
HepG2 [11] = assay: Increase in ACS mRNA expression in human HepG2 cells at 10 uM; format: functional, cell-based
3T3-L1 [12] = assay: Induction of preadipocyte differentiation in mouse 3T3L1 cells assessed as increase in lipid droplet accumulation at 10 uM Oil Red O staining relative to control; format: functional, cell-based

SMILES	Emax [1] [%]	EC50 [2]	pIC50 [3]	Emax [4] [%]	Emax [5] [%]	pEC50 [6]	pEC50 [7]	pIC50 [8]	Activity (3T3-L1 [9])	Activity (HepG2 [10])	Activity (HepG2 [11])	Activity (3T3-L1 [12])
CC(C)=CCC/C(C)=C/Cc1c(O)cc(/C=C/c2ccc(F)cc2)cc1O	68	Not Active	5.61	17	88	5.22	4.96	5.63				
CC(C)=CCC/C(C)=C/Cc1c(O)cc(/C=C/c2cc(F)cc(F)c2)cc1O		Not Active	5.68				5.15	6.05				
CC(C)=CCC/C(C)=C/Cc1c(O)cc(/C=C/c2ccc(C#N)cc2)cc1O	41	Not Active	5.46		54	4.70		5.92				
CC(C)=CCC/C(C)=C/Cc1c(O)cc(/C=C/c2cccc(C(F)(F)F)c2)cc1O		Not Active	5.92			5.40	5.30	6.28	Active	Active		
CC(C)=CCC/C(C)=C/Cc1c(O)cc(/C=C/c2ccc(O)cc2)cc1O		Not Active	5.92			5.10	5.10	6.96				
CC(C)=CCC/C(C)=C/Cc1c(O)cc(/C=C/c2ccoc2)cc1O	98	Not Active	5.69	34	87	5.22	5.30	6.19	Active		Active	
CC(C)=CCC/C(C)=C/Cc1c(O)cc(/C=C/c2ccc(C=O)cc2)cc1O	27	Not Active	5.55		35			6.05				
CC(C)=CCC/C(C)=C/Cc1c(O)cc(/C=C/c2ccsc2)cc1O	68	Not Active	5.27		56	4.85	5.22	6.00				
COc1ccc(/C=C/c2cc(O)c(C/C=C(\C)CCC=C(C)C)c(O)c2)cc1	66	Not Active	5.60		63	4.72	4.85	6.20				
CC(C)=CCC/C(C)=C/Cc1c(O)cc(/C=C/c2ccccc2)cc1O [AMORPHASTILBOL]	83	Not Active	5.82		66	4.92	5.30	6.07		Active	Active	Active
CC(C)=CCC/C(C)=C/Cc1c(O)cc(/C=C/c2ccc(C(F)(F)F)cc2)cc1O		Not Active	5.48					5.09				
CC(C)=CCC/C(C)=C/Cc1c(O)cc(/C=C/c2ccc(Cl)cc2)cc1O		Not Active	5.13					6.27				
